Test results from paper PMC10761119, “Phosphorylation-state dependent intraneuronal sorting of Aβ differentially impairs autophagy and the endo-lysosomal system” (Autophagy, 2023).

Columns and labels:
SH-SY5Y cells = assay: Number and perinuclear/peripheral positioning of LAMP2-positive compartments; assay type: cell-based, human; details: Aβ 1 µM, 24 h
Procedure: Cells were cultured on glass coverslips and treated similarly as mentioned above. After treatment, cells were subsequently washed and fixed with 4% paraformaldehyde in PBS for 15 min. Cells were then permeabilized with 0.25% Triton X-100 in PBS for 1 min, followed by blocking with 2.5% BSA, 0.125% Triton X-100 in PBS. Incubation with primary antibodies (respective dilutions in blocking buffer) was performed overnight at 4°C. Next day, coverslips were washed and incubated with respective secondary antibodies (respective dilutions in blocking buffer) for 1 h at RT. Removal of the secondary antibody solution was followed by washes with PBS (thrice) and distilled water (once) and coverslips were mounted on the slides using ImmuMount (ThermoFisher Scientific – Shandon Epredia™, 9990412). For surface staining without permeabilization, Triton X-100 was not used in any solution during the staining procedure.
All images were processed and analyzed using Fiji ImageJ software. Mander’s overlap coefficient (Figure 1B–D; Figure 2B–F; Figure 4B–F; Figure 6E; S2B, D; S4B, D; S6D, F) analysis was done using the colocalization processing module of the Fiji ImageJ plugin. Distance from the plaque core (Figure 1B) was measured using the concentric circles plugin module. Fluorescence intensity of the green channel (Figure S3A-B), and the number of neurons positive for Aβ signals (Figure S3-D) were quantified using the processing module of Keyence software. […] Intensity of green and red channel for a particular ROI was calculated and ratios of the individual values were computed (Figure 6B and S7A). For computing the number of mCherry^+GFP^± vesicles or per cell (Figure 6D and S7B), cell outline was drawn manually and number of vesicles per cell (nucleus count – DAPI) was calculated. […] Due to slight variability in transfection efficiency or the number of cells in different experimental set-ups, the readings from each experiment were averaged and normalized to the control cells from that particular set. […]

[1] = cited from earlier work
primary cortical neurons = assay: Western immunoblot of Aβ aggregation during incubation with neurons; assay type: cell-based, mouse; details: Aβ 500 nM, 4 h; NuPAGE and western immunoblot with 82E1; compared to npAβ or p-Ser26Aβ
Procedure: Cells were collected by scraping and mechanically homogenized in hypotonic D buffer (10 mM Tris-HCl, pH 7.4, 10 mM NaCl, 0.1 mM EGTA, 25 mM glycerol 2-phosphate, 1 mM DTT) containing protease and phosphatase inhibitors by repeated suspension through a 23 G × 1” needle. Post-nuclear supernatant (PNS) was collected by centrifugation of the mechanically homogenized cellular material at 2,000 g for 5 min. The pellet was the nuclear material. […]
For different cellular fractions prepared as described earlier, the protein content was estimated using the standard Pierce™ BCA protein assay kit (ThermoFisher Scientific, 23225). […] Blots were developed either by enhanced chemiluminescence (ECL) or fluorescence imaging. […] Signals were detected with an ECL imager (Bio-Rad, Germany). For fluorescence detection, blots were imaged on a Li-COR imaging station (Li-COR Biosciences, Germany). […] Quantification of band signals was done using ImageJ – Gel processing module or Image Studio processing software (LiCOR Biosciences, Germany). All samples were analyzed in biological duplicates in two or three independent experiments as indicated in the respective figure legends. […]

Substance | Number of LAMP2-positive vesicles (SH-SY5Y cells) | Ratio of perinuclear to peripheral lysosomes (SH-SY5Y cells; LAMP2-positive compartments, perinuclear <2 µm from nucleus, control 0.61 ± 0.12, n = 12, N = 3) | Assemblies formed (effect of Ser26 phosphorylation) [1] | SDS resistant aggregates formed during the incubation with neurons (primary cortical neurons)
non-phosphorylated amyloid-β [npAβ, reference compound] | significantly increased | 0.99 ± 0.16 | – | –
amyloid-β phosphorylated at serine residue 26 [p-Ser26Aβ] | significantly increased | – | soluble oligomeric assemblies, rather than fibrillar assemblies | –
amyloid-β phosphorylated at serine residue 8 [p-Ser8Aβ] | – | – | – | forms more SDS resistant aggregates
